From patent US11696917B2, “Agent enhancing antitumor effect using pyrazolo[3,4-d]pyrimidine compound” (TAIHO PHARMACEUTICAL CO., LTD., priority 2017, dated 2023)

System: NCI-N87 (human stomach cancer)
Test: Combination of Compound 1 and other antitumor agents (in vitro), CellTiter-Glo, median effect method
Format: cell-based
Procedure: The supplier of each reagent, the suppliers of tumor cell lines, the media used, and the numbers of cells to be inoculated are shown in the tables below.
The cells were inoculated at 20 μL/well to a 384-well culture plate (Corning Inc.). The plate inoculated with the cells were cultured in an incubator set to 37° C. and 5% CO2. On the day following inoculation, each of mixed solutions of Compound 1 and each other antitumor agent at varying combinations of concentrations was added to the cells. Specifically, 8 serial dilutions (including (0 nM)) of Compound 1 and 10 serial dilutions (including (0 nM)) of the other antitumor agent were prepared using Leibovitz's L-15 medium containing 10% FBS, or ATCC formulated RPMI-1640 medium containing 10% FBS. Drug solutions in which equal amounts of the respective serial dilutions of the compounds were dispensed were mixed at a ratio of 1:1 to prepare a total of 80 mixed drug solutions including every combination. Each of these mixed drug solutions was added at 5 μL/well (N=4) to the plate, followed by further culture for 3 days under conditions of 37° C. and 5% CO2.
Three days later, CellTiter-Glo™ 2.0 Reagent (Promega Corporation) was added thereto at 25 μL/well, and chemiluminescence was measured using a plate reader (EnSpire® Multimode Plate Reader, PerkinElmer Japan Co., Ltd.).
The enhancement of an effect by combined use of the drugs was evaluated according to a method known in the art (a method described in Trends Pharmacol. Sci., 4, 450-454, 1983 or Pharmacol Rev., 58 (3), 621-81, 2006).
An average value from 4 wells of each combination was calculated from the obtained data, and a cell survival rate normalized against a control supplemented with a medium containing a vehicle was calculated. A Fa (fraction of affect) value was calculated by subtracting the cell survival rate from 1. Median effect analysis software CalcuSyn 2.0 (CalcuSyn, Inc.) for calculation by the median effect method was used in the calculation of CI.
As for the combinations of the concentrations of both the drugs for calculating CI, a Fa value closer to 1 presumably means a concentration range in which one of the drugs had too strong an effect, and a Fa value closer to 0 presumably means a concentration range in which any of the drugs had too weak an effect. Since these concentration ranges were not appropriate for the discussion of a synergistic effect, combinations that satisfied 0.2 S Fa 0.8 were extracted from the combinations of the respective concentrations of Compound 1 and the other antitumor agent on the basis of the calculated Fa value.
An effect of combined use was determined as shown in the table below (Pharmacol Rev., 58 (3), p. 621-81, 2006).

[1] = Compound 1 0.137 nM + Cisplatin 2062 nM, ratio 1:15030, NCI-N87
[2] = Compound 1 0.137 nM + Gemcitabine 1.37 nM, ratio 1:10, NCI-N87
[3] = Compound 1 0.137 nM + Gemcitabine 4.12 nM, ratio 1:30, NCI-N87
[4] = Compound 1 0.137 nM + Gemcitabine 12.3 nM, ratio 1:90, NCI-N87
[5] = Compound 1 0.137 nM + Trifluridine 12346 nM, ratio 1:90000, NCI-N87
[6] = Compound 1 0.412 nM + Cisplatin 2062 nM, ratio 1:5010, NCI-N87
[7] = Compound 1 0.412 nM + Cisplatin 6185 nM, ratio 1:15030, NCI-N87
[8] = Compound 1 0.412 nM + FdUrd 4115 nM, ratio 1:10000, NCI-N87
[9] = Compound 1 0.412 nM + FdUrd 12346 nM, ratio 1:30000, NCI-N87
[10] = Compound 1 0.412 nM + FdUrd 37037 nM, ratio 1:90000, NCI-N87
[11] = Compound 1 0.412 nM + Trifluridine 1372 nM, ratio 1:3333, NCI-N87
[12] = Compound 1 0.412 nM + Trifluridine 4115 nM, ratio 1:10000, NCI-N87
[13] = Compound 1 0.412 nM + Trifluridine 12346 nM, ratio 1:30000, NCI-N87
[14] = Compound 1 0.412 nM + Trifluridine 37037 nM, ratio 1:90000, NCI-N87
[15] = Compound 1 1.24 nM + Cisplatin 6185 nM, ratio 1:5010, NCI-N87
[16] = Compound 1 1.24 nM + Cisplatin 18556 nM, ratio 1:15030, NCI-N87
[17] = Compound 1 1.24 nM + FdUrd 12346 nM, ratio 1:10000, NCI-N87
[18] = Compound 1 1.24 nM + FdUrd 37037 nM, ratio 1:30000, NCI-N87
[19] = Compound 1 1.24 nM + FdUrd 111111 nM, ratio 1:90000, NCI-N87
[20] = Compound 1 1.24 nM + Gemcitabine 1.37 nM, ratio 1:1.1, NCI-N87
[21] = Compound 1 1.24 nM + Gemcitabine 4.12 nM, ratio 1:3.3, NCI-N87
[22] = Compound 1 1.24 nM + Gemcitabine 12.3 nM, ratio 1:10, NCI-N87
[23] = Compound 1 1.24 nM + Gemcitabine 37.0 nM, ratio 1:30, NCI-N87
[24] = Compound 1 1.24 nM + Gemcitabine 111 nM, ratio 1:90, NCI-N87
[25] = Compound 1 1.24 nM + Paclitaxel 5.56 nM, ratio 1:4.5, NCI-N87
[26] = Compound 1 1.24 nM + Trifluridine 1372 nM, ratio 1:1111, NCI-N87
[27] = Compound 1 1.24 nM + Trifluridine 4115 nM, ratio 1:3333, NCI-N87
[28] = Compound 1 1.24 nM + Trifluridine 12346 nM, ratio 1:10000, NCI-N87
[29] = Compound 1 1.24 nM + Trifluridine 37037 nM, ratio 1:30000, NCI-N87
[30] = Compound 1 1.24 nM + Trifluridine 111111 nM, ratio 1:90000, NCI-N87
[31] = Compound 1 3.70 nM + Cisplatin 2062 nM, ratio 1:557, NCI-N87
[32] = Compound 1 3.70 nM + Cisplatin 6185 nM, ratio 1:1670, NCI-N87
[33] = Compound 1 3.70 nM + Cisplatin 18556 nM, ratio 1:5010, NCI-N87
[34] = Compound 1 3.70 nM + FdUrd 4115 nM, ratio 1:1111, NCI-N87
[35] = Compound 1 3.70 nM + FdUrd 12346 nM, ratio 1:3333, NCI-N87
[36] = Compound 1 3.70 nM + FdUrd 37037 nM, ratio 1:10000, NCI-N87
[37] = Compound 1 3.70 nM + FdUrd 111111 nM, ratio 1:30000, NCI-N87

C=CC(=O)N1CCC[C@@H](n2nc(C(=O)Nc3ccc(CC(=O)N(C)C)c(C)c3C)c3c(N)ncnc32)C1 [Compound 1, (R)-1-(1-acryloylpiperidin-3-yl)-4-amino-N-(4-(2-(dimethylamino)-2-oxoethyl)-2,3-dimethylphenyl)-1H-pyrazolo[3,4-d]pyrimidine-3-carboxamide]
CI [1]: 0.62 | Fa [1]: 0.39 | CI [2]: 0.03 | Fa [2]: 0.69 | CI [3]: 0.37 | Fa [3]: 0.68 | CI [4]: 0.01 | Fa [4]: 0.73 | CI [5]: 0.26 | Fa [5]: 0.43 | CI [6]: 0.64 | Fa [6]: 0.36 | CI [7]: 0.57 | Fa [7]: 0.55 | CI [8]: 0.39 | Fa [8]: 0.25 | CI [9]: 0.46 | Fa [9]: 0.30 | CI [10]: 0.63 | Fa [10]: 0.41 | CI [11]: 0.35 | Fa [11]: 0.26 | CI [12]: 0.65 | Fa [12]: 0.26 | CI [13]: 0.38 | Fa [13]: 0.41 | CI [14]: 0.34 | Fa [14]: 0.54 | CI [15]: 0.40 | Fa [15]: 0.60 | CI [16]: 0.42 | Fa [16]: 0.72 | CI [17]: 0.58 | Fa [17]: 0.33 | CI [18]: 0.70 | Fa [18]: 0.39 | CI [19]: 0.39 | Fa [19]: 0.54 | CI [20]: 0.07 | Fa [20]: 0.70 | CI [21]: 0.06 | Fa [21]: 0.71 | CI [22]: 0.04 | Fa [22]: 0.77 | CI [23]: 0.05 | Fa [23]: 0.73 | CI [24]: 0.05 | Fa [24]: 0.72 | CI [25]: 0.45 | Fa [25]: 0.50 | CI [26]: 0.78 | Fa [26]: 0.24 | CI [27]: 0.71 | Fa [27]: 0.31 | CI [28]: 0.37 | Fa [28]: 0.48 | CI [29]: 0.41 | Fa [29]: 0.55 | CI [30]: 0.68 | Fa [30]: 0.59 | CI [31]: 0.58 | Fa [31]: 0.54 | CI [32]: 0.38 | Fa [32]: 0.67 | CI [33]: 0.42 | Fa [33]: 0.75 | CI [34]: 0.82 | Fa [34]: 0.39 | CI [35]: 0.58 | Fa [35]: 0.47 | CI [36]: 0.41 | Fa [36]: 0.56 | CI [37]: 0.60 | Fa [37]: 0.57
